The values below come from PubChem BioAssay AID1033 (Sanford-Burnham Center for Chemical Genomics, 2008).

The assay has as its target Chaperone protein DnaK (Escherichia coli (strain K12)) (UniProt P0A6Y8). Nature of the assay: E. coli DnaK SBD ligand binding – biophysical, NMR, chaperone (AID 1033). Particulars: Purified DnaK SBD.

SMILES strings stand for the structures. Activity calls are given as the source filed them. The rule behind the calls is not given here. Bounds are passed on as bounds.

Sequence of Chaperone protein DnaK (Escherichia coli (strain K12)) (P0A6Y8 whole entry, looked up): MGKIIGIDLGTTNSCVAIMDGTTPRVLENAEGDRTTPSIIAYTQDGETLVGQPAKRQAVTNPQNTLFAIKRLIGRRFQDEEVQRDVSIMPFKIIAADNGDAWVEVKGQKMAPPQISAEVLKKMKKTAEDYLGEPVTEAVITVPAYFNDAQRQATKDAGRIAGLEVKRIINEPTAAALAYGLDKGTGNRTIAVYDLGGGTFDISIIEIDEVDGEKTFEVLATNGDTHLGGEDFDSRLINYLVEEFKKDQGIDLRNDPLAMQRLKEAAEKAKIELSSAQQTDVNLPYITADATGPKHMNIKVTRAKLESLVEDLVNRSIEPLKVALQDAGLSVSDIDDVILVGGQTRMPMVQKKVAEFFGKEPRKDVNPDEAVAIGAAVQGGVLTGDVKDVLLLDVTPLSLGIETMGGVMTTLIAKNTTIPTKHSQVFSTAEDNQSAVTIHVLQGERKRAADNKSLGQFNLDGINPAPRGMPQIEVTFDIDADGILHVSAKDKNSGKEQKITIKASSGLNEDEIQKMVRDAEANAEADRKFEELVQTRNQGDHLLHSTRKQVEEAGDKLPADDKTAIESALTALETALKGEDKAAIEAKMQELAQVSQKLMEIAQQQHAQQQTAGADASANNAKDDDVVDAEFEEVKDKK

Take `O=c1[nH]cc(COCc2ccccc2)c(=O)[nH]1`: the Kd was > 4 mM (inactive). Then `CC(=O)c1ccc(NS(=O)(=O)c2cccc(C)c2)cc1`, with > 4 mM (inactive); and `CC1(C)Cc2nc3n[nH]c(N)c3cc2CO1`, with > 4 mM (inactive); and `Cn1c(=O)c2c(ncn2CCN)n(C)c1=O`, with > 4 mM (inactive). Turning to `CC(=O)Nc1cccc(N2C(=O)CCC2=O)c1`, the Kd was > 4 mM (inactive).

With `N/N=C/c1cccnc1`, the Kd was > 4 mM (inactive). Regarding `Cc1nc2cc(NC(=O)Nc3nccs3)ccc2n1C`, the Kd is > 4 mM (inactive). The same measure for `COC(=O)C[C@@H]1C2(C)C(=O)[C@@H](CC3=C4CC(O)O[C@@H](c5ccoc5)[C@]4(C)CCC32)[C@H](O)C1(C)C` (some centres not stated): > 4 mM (inactive); for `O=C(O)c1ccc2ncccc2c1`: > 4 mM (inactive). As for `C=C(C)[C@H]1COc2cc3oc(=O)ccc3cc2O1`, the Kd is > 4 mM (inactive). The same measure for `O=C(O)CCC(=O)Nc1nccs1`: > 4 mM (inactive); for `CCOC(=O)C1=C(O)CCN(C)C1`: > 4 mM (inactive); for `c1n[nH]cc1-c1cn[nH]c1`: > 4 mM (inactive). Turning to `Cc1cc(=O)oc2c1c(C)nn2CN1CCN(C)CC1`, the Kd is > 4 mM (inactive).

With `COc1ccc(-c2oc3cc(O[C@H]4O[C@H](CO)[C@@H](O)[C@H](O)[C@H]4O)c(OC)c(O)c3c(=O)c2OC)cc1O`, the Kd was > 4 mM (inactive). Then `CC(=O)O[C@H]1CC[C@@]2(C)C(CC[C@]3(C)C2CC=C2C4CC(C)(C)CC[C@]4(C)CC[C@]23C)C1(C)C` (some centres not stated), with > 4 mM (inactive); and `Clc1ccc2c(N3CCNCC3)ccnc2c1`, with > 4 mM (inactive). The same measure for `O=C1Nc2ccccc2C12OCCO2`: > 4 mM (inactive); for `Nc1ncnc(NCc2cccnc2)c1[N+](=O)[O-]`: > 4 mM (inactive); for `COc1ccc2cc3[n+](cc2c1OC)CCc1cc2c(cc1-3)OCO2`: > 4 mM (inactive). Turning to `O=C1CCNc2ccccc2N1`, the Kd was > 4 mM (inactive). In the case of `O=c1nc(NCc2ccco2)sc2ncccc12`, the Kd was > 4 mM (inactive). Then `O=c1ccc2cc(O)c(O)cc2o1`, with > 4 mM (inactive); and `CC(CCC(=O)O)[C@H]1CCC2C3CC[C@@H]4CCCC[C@]4(C)C3CC[C@@]21C` (some centres not stated), with > 4 mM (inactive). The same measure for `Cc1ccc(CCNc2ccccc2)c[n+]1[O-]`: > 4 mM (inactive); for `CS(=O)(=O)c1cccc(C(=O)Nc2nccs2)c1`: > 4 mM (inactive).

As for `COc1cc2occc2c2oc(=O)ccc12`, the Kd is > 4 mM (inactive).

Regarding `O=C(C1CCNCC1)N1CCCCCC1`, the Kd is > 4 mM (inactive). On to `O=c1c(-c2cc(O)c(O)c(O)c2)coc2cc(O)c(O)c(O)c12`, for which the Kd was > 4 mM (inactive).

For `CSc1nnc2[nH]c(=O)cc(N)n12`, the Kd was > 4 mM (inactive).

In the case of `CN(C)c1ccc(N2C(=O)CCC2=O)cc1`, the Kd was > 4 mM (inactive). Turning to `CN(C)c1nc(N2CCOCC2)nc(N2CCOCC2)n1`, the Kd is > 4 mM (inactive).

Turning to `COc1ccc(NC(=O)C2CC(=O)N=C(N)S2)cc1` (configuration not stated), the Kd is > 4 mM (inactive). The same measure for `O=C(O)c1cc(O)c(O)c(O)c1`: > 4 mM (inactive). Then `COc1ccc2c(c1)OC/C(=C\c1ccc(OC)c(O)c1)C2=O`, with > 4 mM (inactive).

As to `S=C(NCC1CCCO1)NC1CC1` (configuration not stated), the Kd was > 4 mM (inactive). The same measure for `COc1cc2c(cc1OC)Cc1cc(OC)c(OC)cc1Cc1cc(OC)c(OC)cc1C2`: > 4 mM (inactive); for `O=c1[nH]cnc2nn(-c3ccccc3)nc12`: > 4 mM (inactive); for `CC[C@]12CCCN3CCc4c(n(c5ccccc45)[C@](O)(C(=O)OC)C1)[C@@H]32`: > 4 mM (inactive). The same measure for `Cc1nc2cc(Cl)ccc2n1CCO`: > 4 mM (inactive); for `Cc1ccc(S(=O)(=O)CC(=O)N2CCCC2)cc1`: > 4 mM (inactive); for `O=C(O[C@@H]1Cc2c(O)cc(O)cc2O[C@@H]1c1cc(O)c(O)c(O)c1)c1cc(O)c(O)c(O)c1`: > 4 mM (inactive). The same measure for `Cc1nnc(Nc2ccc(S(N)(=O)=O)cc2)[nH]c1=O`: > 4 mM (inactive). For `CN1CCN(c2ccc(CN)cc2)CC1`, the Kd is > 4 mM (inactive).

For `COC(=O)c1cn(C(=O)OC)c2ccccc12`, the Kd was > 4 mM (inactive). `COc1c(O)cc2c(c1O)[C@H]1O[C@H](CO)[C@@H](O)[C@H](O)[C@@H]1OC2=O`: the Kd is > 4 mM (inactive). Take `CC(C)Oc1ccc(C2CC(=O)NNC2=O)cc1` (configuration not stated): the Kd is > 4 mM (inactive). Then `CN(C)C(=O)c1ccc(-c2n[nH]c(=O)c3ccccc23)cc1`, with > 4 mM (inactive). Then `O=S(=O)(CCN1CCCC1)c1ccccc1`, with > 4 mM (inactive); and `CN(C)C(=O)CCNS(=O)(=O)c1ccccc1`, with > 4 mM (inactive). Then `Cc1cc(N)n(-c2ccccc2)n1`, with > 4 mM (inactive).

Consider `COc1ccc(Cl)cc1NC(=O)C(N)=O`, for which the Kd is > 4 mM (inactive). Then `O=C(O)CSCc1c(F)cccc1Cl`, with > 4 mM (inactive).

For `O=C(Cc1cccs1)N1CCOCC1`, the Kd was > 4 mM (inactive). As for `Cc1cc(C(=O)NCc2ccco2)cs1`, the Kd is > 4 mM (inactive).

Turning to `Nc1ccc2nsnc2c1`, the Kd is > 4 mM (inactive). Then `Cc1cccc(C(C)C)c1NC(=O)c1cccnc1`, with > 4 mM (inactive).

`CC(=O)O[C@H]1CC[C@@]2(C)C(CC[C@]3(C)C2C(=O)C=C2C4[C@@H](C)[C@H](C)CC[C@]4(C(=O)O)CC[C@]23C)C1(C)C` (some centres not stated): the Kd is > 4 mM (inactive). Take `Nc1n[nH]c(=S)n1-c1ccccc1`: the Kd is > 4 mM (inactive).

Regarding `O=C(Nc1nnc(-c2ccncc2)o1)c1cccs1`, the Kd was > 4 mM (inactive).

Regarding `CC1(C)Oc2ccc3ccc(=O)oc3c2CC1O` (configuration not stated), the Kd is > 4 mM (inactive). Take `O=C(O)c1ccc(CSc2ncn[nH]2)cc1`: the Kd is > 4 mM (inactive).

`O=S(=O)(O)c1cc[n+]([O-])cc1`: the Kd is > 4 mM (inactive). Take `CC(NC(=O)c1ccco1)C1CCCO1` (configuration not stated): the Kd was > 4 mM (inactive). The same measure for `CC1SC(=NC(=O)c2ccncc2)NC1=O` (configuration not stated): > 4 mM (inactive); for `O=C(O)C1CSC(c2cccnc2)N1` (configuration not stated): > 4 mM (inactive).

As for `Cc1cc(C(=O)N2CCN(c3ncccn3)CC2)c(C)o1`, the Kd is > 4 mM (inactive). Then `CC(=O)Nc1cccc(Cn2cccn2)c1`, with > 4 mM (inactive). In the case of `COCc1nc(-c2cc(Br)ccc2OC)no1`, the Kd was > 4 mM (inactive).

As for `c1ccc2[nH]c(-c3cscn3)nc2c1`, the Kd was > 4 mM (inactive).

As for `CC(=O)CC(=O)N1C(O)CC[N+]1(C)C` (configuration not stated), the Kd was > 4 mM (inactive). In the case of `CN(C)c1ccc(CNn2cnnc2)cc1`, the Kd was > 4 mM (inactive). Then `CC(=O)c1cnc2nc(C(F)(F)F)nn2c1C`, with > 4 mM (inactive). Then `OC1(c2ccc(Cl)cc2)CCNCC1`, with > 4 mM (inactive). Then `CCOC(=O)C1=C(C)N2CCN=C2S1`, with > 4 mM (inactive); and `OCc1snnc1-c1ccccc1`, with > 4 mM (inactive). Regarding `CC(=O)c1c(C)n([O-])c2ccccc2[n+]1=O`, the Kd was > 4 mM (inactive). The same measure for `COc1ccc(C(=O)NC2=NCCS2)cc1OC`: > 4 mM (inactive). Then `Cc1cc(C)n(S(=O)(=O)c2cc(C)c(C)cc2C)n1`, with > 4 mM (inactive); and `C[C@H](CCC(=O)O)[C@H]1CCC2C3C(CC[C@@]21C)[C@@]1(C)CC[C@@H](O)C[C@H]1C[C@H]3O` (some centres not stated), with > 4 mM (inactive); and `O=C(O)Cn1nc(-c2ccccc2)c2ccccc2c1=O`, with > 4 mM (inactive). Then `Cn1cnc([N+](=O)[O-])c1Sc1ncnc2nc[nH]c12`, with > 4 mM (inactive); and `CN=C(C)c1c(O)n(C)c(=O)n(C)c1=O`, with > 4 mM (inactive); and `Cc1[nH]c2ccccc2c(=O)c1CO`, with > 4 mM (inactive).

`O=c1oc(-c2ccccc2)nc2c1cnn2-c1ccccc1`: the Kd is > 4 mM (inactive). Then `Cc1cc(=O)cc(C)n1-c1ccccc1N1CCOCC1`, with > 4 mM (inactive); and `COc1cccc(NC(=O)c2cnn(C)c2Cl)c1`, with > 4 mM (inactive). Then `O=C(c1ccccc1)c1ccc(N2CCNCC2)cc1`, with > 4 mM (inactive); and `COc1ccc(S(=O)(=O)Nc2ccccn2)c(C)c1C`, with > 4 mM (inactive).

Consider `CC(=O)Nc1ccc(NC(C)=O)c(C(F)(F)F)c1`, for which the Kd is > 4 mM (inactive). Then `Cc1nn(C)c(Cl)c1C(O)c1c(C)nn(C)c1Cl`, with > 4 mM (inactive). As to `c1ccc(C[N+]23CCN(CC2)c2ccccc23)cc1`, the Kd is > 4 mM (inactive). The same measure for `O=C(Nc1ccon1)c1ccc(Cl)s1`: > 4 mM (inactive); for `O=c1/c(=C/c2ccccc2F)sc2ncnn12`: > 4 mM (inactive); for `Cc1oc(-c2ccccc2)nc1CC(=O)O`: > 4 mM (inactive). Then `O=C(CNC(=O)c1ccc(F)cc1)NC1=NCCS1`, with > 4 mM (inactive).

As for `N=C1/C(=C\c2ccco2)C(=O)N=C2SC=NN12`, the Kd is > 4 mM (inactive). The same measure for `O=C1C2CC=CCC2C(=O)N1c1ccccc1` (configuration not stated): > 4 mM (inactive). Then `c1ccc(-n2ncc3c(NCc4ccco4)ncnc32)cc1`, with > 4 mM (inactive); and `CCSc1nnc(-c2ccccc2N)c(=O)[nH]1`, with > 4 mM (inactive). The same measure for `Cc1ccc(/C=N/n2c(C)nnc2C)cc1`: > 4 mM (inactive); for `COc1cc2c(c(OC)c1OC)-c1ccc(OC)c(=O)cc1[C@@H](NC(C)=O)CC2`: > 4 mM (inactive).

As a reminder, the Kd is the free concentration of one partner at which half of the binding sites on the other are occupied at equilibrium, for simple one-to-one binding.
